Patent EP3811940B1, “SUBSTITUTED 4,5'-BITHIAZOLES AS INHIBITORS OF THE HUMAN DNA TOPOISOMERASE II” (Kemijski Institut, priority 2019, dated 2021)
“And” between values parts separate entries of the source, which are not always exact repeats. Equal entries are not always repeated.

Assays:
human topo IIα = target: T1, human topo IIα (Homo sapiens, UniProt P11388); experiment: competitive ATPase assay at different ATP concentrations; type: biochemical
T1 construct: purchased Inspiralis (Norwich, UK)
T1 sequence (P11388 whole entry): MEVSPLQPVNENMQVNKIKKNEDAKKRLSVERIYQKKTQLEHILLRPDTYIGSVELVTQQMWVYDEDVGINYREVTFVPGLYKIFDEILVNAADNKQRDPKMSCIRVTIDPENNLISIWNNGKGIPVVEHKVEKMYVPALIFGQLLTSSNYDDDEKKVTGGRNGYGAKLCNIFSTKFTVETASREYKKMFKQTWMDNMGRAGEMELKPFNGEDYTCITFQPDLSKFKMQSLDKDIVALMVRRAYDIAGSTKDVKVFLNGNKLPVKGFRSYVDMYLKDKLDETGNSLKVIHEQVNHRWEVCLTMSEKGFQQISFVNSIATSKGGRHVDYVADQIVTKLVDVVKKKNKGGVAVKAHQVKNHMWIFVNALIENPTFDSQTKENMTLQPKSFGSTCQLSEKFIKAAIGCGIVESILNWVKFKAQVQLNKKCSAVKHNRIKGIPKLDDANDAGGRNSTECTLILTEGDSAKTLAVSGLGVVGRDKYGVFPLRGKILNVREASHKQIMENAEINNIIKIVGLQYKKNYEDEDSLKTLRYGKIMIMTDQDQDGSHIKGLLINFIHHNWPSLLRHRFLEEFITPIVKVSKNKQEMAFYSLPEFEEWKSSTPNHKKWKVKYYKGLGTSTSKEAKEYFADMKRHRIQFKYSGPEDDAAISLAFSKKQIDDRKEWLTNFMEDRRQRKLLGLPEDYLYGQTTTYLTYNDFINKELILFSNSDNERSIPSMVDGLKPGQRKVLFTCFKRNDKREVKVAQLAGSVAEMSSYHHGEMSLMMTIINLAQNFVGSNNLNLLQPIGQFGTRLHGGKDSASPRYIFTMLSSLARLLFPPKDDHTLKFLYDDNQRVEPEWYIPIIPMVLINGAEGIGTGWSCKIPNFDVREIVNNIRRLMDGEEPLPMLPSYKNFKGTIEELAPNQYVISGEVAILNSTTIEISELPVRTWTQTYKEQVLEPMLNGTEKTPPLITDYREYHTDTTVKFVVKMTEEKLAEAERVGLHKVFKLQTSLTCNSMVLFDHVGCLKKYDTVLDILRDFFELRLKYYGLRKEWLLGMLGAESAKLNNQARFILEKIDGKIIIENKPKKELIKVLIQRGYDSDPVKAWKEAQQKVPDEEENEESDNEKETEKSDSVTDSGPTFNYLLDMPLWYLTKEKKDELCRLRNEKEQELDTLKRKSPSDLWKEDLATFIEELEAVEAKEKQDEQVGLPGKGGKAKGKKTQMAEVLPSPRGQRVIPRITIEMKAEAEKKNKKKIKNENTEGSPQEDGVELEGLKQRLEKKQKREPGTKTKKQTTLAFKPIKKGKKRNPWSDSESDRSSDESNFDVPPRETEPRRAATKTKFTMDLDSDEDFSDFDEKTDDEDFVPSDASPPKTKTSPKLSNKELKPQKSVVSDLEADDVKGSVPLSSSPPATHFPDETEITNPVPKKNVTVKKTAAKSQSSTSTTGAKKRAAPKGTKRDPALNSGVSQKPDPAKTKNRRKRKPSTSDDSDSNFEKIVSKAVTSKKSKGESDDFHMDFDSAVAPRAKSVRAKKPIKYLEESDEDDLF
Experimental: Then, we performed the competitive ATPase assay for compound 1, to investigate how our class of compounds affects the ATP hydrolysis in dependence of ATP concentration. Assay was performed at 8 different concentrations of ATP and compound 1. […] The assay was carried out in two parallels. […] In addition, we also calculated the IC50 values of compound 1 vs. different concentrations of the ATP.
Compound were analyzed using a linked ATPase assay in which the ADP produced by the hydrolysis of ATP leads to the conversion of NADH to NAD by a pyruvate kinase/lactate dehydrogenase mix. The disappearance of NADH was monitored at 340 nm. A mix of the assay buffer (5 µL of 10X buffer per assay: final conc. 20 mM Tris-HCl, 5 mM magnesium acetate, 125 mM potassium acetate, 2 mM DTT, pH 7.9), linear pBR322 (1.5 µL of 1mg/mL per assay), phosphoenol pyruvate (0.5 µL of 80 mM per assay), pyruvate kinase/lactate dehydrogenase mix (0.75 µL per assay), NADH (1 µL of 20 mM per assay), DMSO (1.5 µL per assay), and water (32.85 µL per assay) was made. 41.1 µL of this mixture was aliquoted into the wells of a 384-well microtiter plate. 0.5 µL of DMSO or the investigated compound were added to the wells and mixed. 5 µL of the dilution buffer or human topo IIα (200 nM stock giving the 12 nM final concentration) were then added and mixed. A pre-run was done before the run was started by adding 3.4 µL of the appropriate concentration of ATP and the OD340 monitored for up to 35 minutes. Assays were performed at 37 °C. Two negative controls (4 % DMSO and dilution buffer without enzyme) were run in the presence of 2 mM ATP. This assay was performed at 8 different concentrations of the ATP (0.025, 0.05, 0.075, 0.1, 0.25, 0.5, 0.75 and 1 mM). Assays were performed at 3.9, 31, 50, 75 and 100 µM final concentrations of the investigated compound 1. The final DMSO concentration in all the reactions was 4 % (v/v). Assay was performed in duplicate. The human topo competitive ATPase assay was performed in collaboration with Inspiralis (Norwich, UK).

HepG2 cells [1] = experiment: cell cycle analysis by flow cytometry (Hoechst 33342); type: cell-based, human; conditions: 24h, mean ± SD of 3; for S phase, percent of HepG2 cells: listed as head printed "5" in Table 7
Experimental: (§1) Figure 4. Cell cycle analysis, cell proliferation and induction of the DNA double stand breaks (DBS) by the selected substituted 4,5'-bithiazole compound 1. (A) Percent of HepG2 cells in certain phases of cell cycle after 24h treatment to compound 1 at 50 µM and 10 µM in comparison with the solvent control (0). […] (B) Percent of proliferative cells after 24h treatment to compound 1 at 50 µM and 10 µM determined with the Ki67 antibody. (C) Results of the analyses of the induction of the DNA double strand breaks by γ-H2AX assay. Distribution of the fluorescent signals of individual cells in the samples is shown. Data are presented as quantile box plots. The edges of the box represent the 25th and 75th percentiles, the median is a solid line through the box, and the bars represent 95% confidence intervals. In each sample, 10^4 events were recorded, and experiments were repeated three times independently. Significant difference between treated cells and the solvent control (0) is indicated by * p < 0.05, ** p < 0.01 and *** p < 0.001.
(§2) After the exposure floating and adherent cells were collected by trypsinization. For the fixation the cells were centrifuged at 800 rpm, 4°C for 5 min, washed twice with ice cold PBS, resuspended in 0.5 mL cold PBS and ethanol (1.5 mL) was added drop wise into the cell pellet, while vortexing. The cells were fixed at 4°C overnight and stored at -20°C until analysis. Fixed cells were centrifuged at 1200 rpm for 10 min, washed with ice cold 1× PBS and labelled with Anti-H2AX pS139 antibodies (50-fold diluted) for DNA DBS analysis, Ki67 antibodies (50-fold diluted) for proliferation analysis and Hoechst 33342 dye for cell cycle analysis according to the manufacturer's protocol. Flow cytometric analysis was carried out on a MACSQuant Analyzer 10 (Miltenyi Biotech, Germany). FITC intensity, corresponding to proliferation marker Ki67+, was detected in the FITC-A channel and cell cycle analysis was detected in VioBlueA channel. APC intensity, corresponding to DSBs, was detected in the APC-A channel. Unspecific binding was checked with rea-FITC and rea-APC antibodies (Miltenyi Biotec, Germany). In each sample, 10 000 events were recorded. Independent experiments were repeated three times. […] For further analysis the raw data was exported from MACSQuantify software and it was converted to. fcs format and further to the .csv format. For the yH2AX foci analysis the statistical significance between treated groups and the vehicle control was determined with a linear mixed-effects model. Calculations were done with the statistical program R [49] and its packages reshape and nlme.

HepG2 cells [2] = experiment: cell proliferation, Ki-67 marker, flow cytometry; type: cell-based, human; conditions: 24h
Experimental: as §2, with “For” for “For further analysis the raw data was exported from MACSQuantify software and it was converted to. fcs format and further to the .csv format. For”, “Calculations were done with the statistical program R [49] and its packages reshape and nlme.” left out

HepG2 cells [3] = experiment: γ-H2AX assay, induction of DNA double strand breaks; type: cell-based, human; conditions: 24h, result in words
Experimental: as §1, with “The edges of the box represent the 25th and 75th percentiles, the median is a solid line through the box, and the bars represent 95% confidence intervals.” left out, “Significant difference between treated cells and the solvent control (0) is indicated by * p < 0.05, ** p < 0.01 and *** p < 0.001.” left out
After the exposure floating and adherent cells were collected by trypsinization. […] FITC intensity, corresponding to proliferation marker Ki67+, was detected in the FITC-A channel and cell cycle analysis was detected in VioBlueA channel. APC intensity, corresponding to DSBs, was detected in the APC-A channel. […] In each sample, 10 000 events were recorded. […] For the yH2AX foci analysis the statistical significance between treated groups and the vehicle control was determined with a linear mixed-effects model. […]

[4] = target: T2, human topo IIα ATPase domain (Homo sapiens, UniProt P11388); experiment: microscale thermophoresis (MST) binding; conditions: three independent runs; initial fluorescence; labelled protein 20 nM
T2 construct: The ATPase fragment with 1-453 amino acid residues was purchase from Inspiralis; purchased Inspiralis
T2 sequence (P11388 1-453): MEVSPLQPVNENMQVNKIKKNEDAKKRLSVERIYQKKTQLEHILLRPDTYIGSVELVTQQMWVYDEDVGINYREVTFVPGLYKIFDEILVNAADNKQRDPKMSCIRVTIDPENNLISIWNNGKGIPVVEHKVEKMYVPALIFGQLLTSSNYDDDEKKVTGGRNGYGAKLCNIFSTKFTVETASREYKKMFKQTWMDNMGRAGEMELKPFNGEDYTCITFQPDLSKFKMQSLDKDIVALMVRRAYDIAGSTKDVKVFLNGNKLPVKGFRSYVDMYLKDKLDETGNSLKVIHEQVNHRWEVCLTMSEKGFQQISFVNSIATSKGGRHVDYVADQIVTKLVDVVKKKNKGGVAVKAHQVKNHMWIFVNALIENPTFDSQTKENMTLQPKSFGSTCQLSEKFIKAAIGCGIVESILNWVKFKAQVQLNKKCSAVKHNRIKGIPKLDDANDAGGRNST
Text: Figure 2. […] The graph shown is representative of two independent experiments.

IC50 (human topo IIα; c(ATP) 0.025): 3.8 µM
IC50 (human topo IIα; c(ATP) 0.05): 8.8 µM
IC50 (human topo IIα; c(ATP) 0.075): 14.8 µM
IC50 (human topo IIα; c(ATP) 0.1): 9.4 µM
IC50 (human topo IIα; c(ATP) 0.25): 18.3 µM
IC50 (human topo IIα; c(ATP) 0.5): 15.2 µM
IC50 (human topo IIα; c(ATP) 0.75): 17.8 µM
IC50 (human topo IIα; c(ATP) 1): 21.6 µM
IC50 (human topo IIα; c(ATP) 2): 25.4 µM
Kd [4]: 50.6 ± 7.6 µM
SMILES: Cc1nc(N)sc1-c1csc(Nc2ccc(C(F)(F)F)cc2)n1 [Compound 1, 4'-methyl-N2-(4-(trifluoromethyl)phenyl)-[4,5'-bithiazole]-2,2'-diamine]
>G1, G2<, percent of HepG2 cells (HepG2 cells [1]; 10 µM): 1.2 ± 1.0%
G1 phase, percent of HepG2 cells (HepG2 cells [1]; 10 µM): 56.5% and 56.5 ± 6.4%
G2 phase, percent of HepG2 cells (HepG2 cells [1]; 10 µM): 24.8 ± 4.5%
S phase, percent of HepG2 cells (HepG2 cells [1]; 10 µM): 17.5% and 17.5 ± 1.1^∗∗∗ %
>G1, G2<, percent of HepG2 cells (HepG2 cells [1]; 50 µM): 1.4 ± 0.6%
G1 phase, percent of HepG2 cells (HepG2 cells [1]; 50 µM): 60.6% and 60.6 ± 7.0^∗ %
G2 phase, percent of HepG2 cells (HepG2 cells [1]; 50 µM): 26.2 ± 2.5%
S phase, percent of HepG2 cells (HepG2 cells [1]; 50 µM): 17.5% and 11.8 ± 4.5^∗∗ %
Percent of cell proliferation (Ki-67 positive) (HepG2 cells [2]; 10 µM): 88.6%
Percent of cell proliferation (Ki-67 positive) (HepG2 cells [2]; 50 µM): 81.3%
DNA DSB formation (HepG2 cells [3]; 10 µM): no increase
DNA DSB formation (HepG2 cells [3]; 50 µM): no increase
